# Literature values, collected in US20050255458A1, “Drug discovery assays based on the biology of chronic disease” (priority 2002, published 2005).
# Structures can show the parent of a compound that is named as a salt. Where two headings read alike, the source gives them in different places.
# What was measured:
# [1] = cited from earlier work
# GABP = conditions: cited from earlier work; for GABP DNA binding activity, treated nuclear extracts: 3T3 nuclear extracts, DTT on extracts of DEM-treated cells, GSSG 5 mM; for GABP DNA binding activity (EMSA): 3T3 cells treated 2 h, single and double N-box probes
# NOD mice = conditions: mouse, in vivo; cited from earlier work
# ERK1 and ERK2 = conditions: cited from earlier work; for MAPK activation: Wen 1996, Rao 1994
# [2] = system: hair follicles (onset of anagen); conditions: cited from earlier work; for delay in hair regrowth: topical 10 nmol twice weekly, female CD-1 mice
# AT1-receptor = target: T1, AT1-receptor (Oryctolagus cuniculus, UniProt P34976); conditions: cited from earlier work
# T1 construct: from tissue; host or cells: whole animal: Watanabe and New Zealand White rabbits
# T1 sequence (P34976 1-359): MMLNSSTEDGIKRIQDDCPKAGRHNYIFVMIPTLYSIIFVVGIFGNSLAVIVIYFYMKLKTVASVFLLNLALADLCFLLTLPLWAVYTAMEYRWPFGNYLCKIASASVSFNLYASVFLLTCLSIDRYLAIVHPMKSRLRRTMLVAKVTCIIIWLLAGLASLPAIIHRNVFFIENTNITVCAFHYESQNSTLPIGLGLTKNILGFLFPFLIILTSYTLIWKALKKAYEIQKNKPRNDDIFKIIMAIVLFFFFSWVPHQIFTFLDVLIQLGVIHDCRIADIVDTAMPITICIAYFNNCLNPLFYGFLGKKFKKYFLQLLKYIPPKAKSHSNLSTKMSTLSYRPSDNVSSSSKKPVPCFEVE
# double N-box-TATA-Luc = conditions: cited from earlier work; for decrease in luciferase expression: double N-box-TATA-Luc
# apoE(−/−) mice = conditions: 48 hours post injection; cited from earlier work
# TF [3] = conditions: cited from earlier work
# ERK [4] = conditions: cited from earlier work
# AR gene = conditions: LNCaP; cited from earlier work
# papilla cells = conditions: cited from earlier work
# anagen hair follicles = conditions: Kondo 1990; cited from earlier work
# Elk-1 = conditions: Peterziel 1999; cited from earlier work
# TF [5] = conditions: dose-dependent; cited from earlier work
# [6] = system: ocular melanoma cell lines; conditions: cited from earlier work
# ERK [7] = conditions: Jurkat cells; cited from earlier work
# TF antigen = conditions: starting on day 3, significant on day 28; cited from earlier work
# metallothionein (MT) = conditions: OC15 EC, OC15 END cells; cited from earlier work
# apo(a) transgenic mice = conditions: 12 weeks; cited from earlier work
# fibronectin = conditions: cited from earlier work
# 20-3 cells = conditions: cited from earlier work
# ERK1/2 = conditions: cited studies, various cells; cited from earlier work
# AChRδ and AChRε genes = conditions: cited from earlier work
# TF [8] = conditions: cited from earlier work; remark: listed apart in the source
molecule,measurement,setting,value
"CN(N=O)C(=O)N[C@H]1C(O)O[C@H](CO)[C@@H](O)[C@@H]1O (mixture of isomers) [STZ, streptozotocin]",increase in ratio of liver weight to body weight,[1]; 8 days after injection,12%
same,hepatocyte mitosis,[1]; 8 days,300 % of normal
same,increase in ratio of liver weight to body weight,[1]; 30 days,44%
same,hepatocyte mitosis,[1]; 90 days,25 % of normal
"O[C@H](CS)[C@H](O)CS (racemic) [DTT, dithiothreitol]","GABP DNA binding activity, treated nuclear extracts",GABP,restored GABP binding activity
O=C(O)CCCC[C@@H]1CCSS1 (racemic) [lipoic acid],insulitis and diabetes,NOD mice,decreased insulitis and delayed diabetes
CCCCC/C=C\C[C@H](O)/C=C/C=C\C/C=C\CCCC(=O)O [12-HETE],MAPK activation,ERK1 and ERK2,activation of MAPK
CCCCC[C@H](O)/C=C/C=C\C/C=C\C/C=C\CCCC(=O)O [15-HETE],MAPK activation,ERK1 and ERK2,activation of MAPK
C[C@]12CC[C@@H]3c4ccc(O)cc4CC[C@H]3[C@@H]1CC[C@@H]2O [17β-estradiol],delay in hair regrowth,[2],indefinite delay
same,hair growth,[2]; topical application (Chanda 2000),decreased hair growth
"O=C(O)CCC/C=C\C/C=C\C/C=C\C/C=C\CCCCCO [20-HETE, 20-hydroxyeicosatetraenoic acid]",ERK1 and ERK2 activation,"ERK1 and ERK2; 0.25 μM, 10 min",activated ERK1 and ERK2
CCCCc1cc(C(=O)OC)cc(=O)n1Cc1ccc(-c2ccccc2-c2nnn[nH]2)cc1F [Bay 10-6734],fat-stained area in the aorta,"AT1-receptor; 25 mg/kg/day, high-cholesterol diet",5.3±1.4%
same,% of macrophage stained area/total plaque cross sectional area,AT1-receptor; 25 mg/kg/day,1±0.2%
same,cholesterol levels,AT1-receptor; hyperlipidemic or control animals,did not change the cholesterol levels
"CCOC(=O)/C=C\C(=O)OCC [DEM, diethyl maleate]",GABP DNA binding activity (EMSA),GABP,decreased formation
same,luciferase expression from C/EBP-TA-Luc,double N-box-TATA-Luc; 6 or 8 h treatment,no effect
same,decrease in luciferase expression,double N-box-TATA-Luc; 6 h,28%
same,decrease in luciferase expression,double N-box-TATA-Luc; 8 h,62%
"CCCCCCCCCCCCCCCC(=O)OC[C@H](COP(=O)([O-])OCC[N+](C)(C)C)OC(=O)CCCCCCCCCCCCCCC [DPPC, dipalmitoylphosphatidylcholine]",lipid content of aortic sinus,apoE(−/−) mice,18.1±4.7 % of plaque area
same,macrophage content of aortic sinus,apoE(−/−) mice,9.3±5.8 % of plaque area
"CC(=O)N[C@@H](CS)C(=O)O [NAC, N-Acetylcysteine]",TF activity,"TF [3]; cells incubated with AGE-alb, 30 mmol/L",concentration dependent inhibition of TF activity
same,AGE-alb induced TF mRNA,TF [3],almost completely suppressed
same,GABP DNA binding activity (EMSA),GABP,prevented
C[C@]12CC[C@H]3[C@@H](CCC4=CC(=O)CC[C@@]43C)[C@@H]1CC[C@@H]2O [Testosterone],Effect on [ERK^phos],ERK [4]; SW-13 human adrenal carcinoma,↑[ERK^phos]
same,Effect on [mRNAAR],AR gene,↓[mRNAAR]
same,papilla cell proliferation,"papilla cells; 345 nM, 14 days",significantly decreased papilla cell proliferation
same,dermal papilla cell proliferation,"papilla cells; 10^−10 to 10^−7 M, alone or co-cultured (Obana 1997)",no effect
same,concentrations with no significant effect on papilla cell proliferation,papilla cells; Kiesewetter 1993,lower than 173 nM
same,delay in hair regrowth,[2],small delay
same,growth of isolated hair follicles,anagen hair follicles,growth inhibition
CCNc1cccnc1N1CCN(CC2(C)CCc3c(C)c(O)c(C)c(C)c3O2)CC1.Cl (stereo not shown) [U78518F],insulitis and diabetes,NOD mice,decreased insulitis and delayed diabetes
CC(O)(CS(=O)(=O)c1ccc(F)cc1)C(=O)Nc1ccc(C#N)c(C(F)(F)F)c1 (stereo not shown) [casodex],Elk-1 transcription activity,Elk-1,increase in Elk-1 transcription activity
CC(C)(O)C(=O)Nc1ccc([N+](=O)[O-])c(C(F)(F)F)c1 [hydroxyflutamide],Elk-1 transcription activity,Elk-1,increase in Elk-1 transcription activity
CN(CC(=O)NO)C(=O)[C@@H]1CCCC[C@@H]1C(=O)O [idrapril],TF activity,TF [5],decreased TF activity
C[C@H](CCC(=O)O)C[C@H](C)C[C@H](C)C(=O)/C=C(\O)[C@H](C)C[C@H](C)C/C=C/[C@@H](C)[C@@H](O)[C@@H](C)[C@@H](O)C[C@@H]1CC[C@@](C)([C@H]2CC[C@@](C)([C@@H](C)O)O2)O1 [ionomycin],cell attachment to plates coated with fibronectin and other matrix proteins,[6],Significant inhibition
same,ERK phosphorylation,ERK [7],increased ERK phosphorylation
CCCCc1nc(Cl)c(CO)n1Cc1ccc(-c2ccccc2-c2nn[nH]n2)cc1 [losartan],plasma TF antigen levels,TF antigen,negative effect on plasma TF antigen levels
NC(=O)c1cccnc1 [nicotinamide],insulitis and diabetes,NOD mice,decreased insulitis and delayed diabetes
CC(=O)[O-].[Na+] [sodium acetate],MT mRNA levels,metallothionein (MT),no effect
CCC(=O)[O-].[Na+] [sodium propionate],MT mRNA levels,metallothionein (MT),no effect
CC/C(=C(\c1ccccc1)c1ccc(OCCN(C)C)cc1)c1ccccc1 [tamoxifen],decrease of area of focal apo(a) accumulation,apo(a) transgenic mice,97%
same,decrease of average level of apo(a) in the vessel wall,apo(a) transgenic mice,69%
same,decrease of lesion area,apo(a) transgenic mice,92%
same,decrease of number of lipid lesions,apo(a) transgenic mice,80%
same,cell attachment to plates coated with fibronectin and other matrix proteins,[6],significant inhibition of cell attachment
NCCCCCC(=O)O [ε-ACA],Lp(a) binding to fibronectin,fibronectin,not effective against Lp(a) binding to fibronectin
same,binding of plasminogen to fibronectin,fibronectin,inhibited binding of plasminogen to fibronectin
"EGF: EGF, an ERK agent",Effect on [ERK^phos],ERK [4]; DU145,↑[ERK^Phos]
same,Effect on [ERK^phos],ERK [4]; LNCaP,↑[ERK^phos]
same,Effect on [ERK^phos],ERK [4]; PC-3,↑[ERK^phos]
same,Elk-1 transcription activity,Elk-1,Elk-1 activation
same,Effect on [mRNAAR],AR gene,↓[mRNAAR]
TGFβ1: transforming growth factor-β1,labeling index after treatment,"20-3 cells; 5 ng/ml, 72 h, permissive temperature (from 95%)",80%
same,labeling index after treatment,20-3 cells; 72 h non-permissive then 24 h permissive (from 60%),below 10%
same,labeling index after treatment,20-3 cells; non-permissive temperature (from 20%),less than 5%
heregulin,phosphorylation of ERK1/2,ERK1/2,phosphorylation of ERK1/2
same,increase in GABPα protein level,"AChRδ and AChRε genes; Western blot, treated vs untreated cells",2 fold
same,phosphorylation of GABPα and GABPβ,AChRδ and AChRε genes; chick primary myotubes,increased phosphorylation
same,transcription of AChRδ and AChRε genes,AChRδ and AChRε genes,increased transcription
same,transcription of utrophin,AChRδ and AChRε genes,stimulated transcription
oxidized glutathione [GSSG],"GABP DNA binding activity, treated nuclear extracts",GABP,nearly abolished GABP DNA binding
vitamin E,effect on LPS induced TF expression,TF [8],inhibited the LPS induced expression
same,effect on Cu^+2 induced procoagulant activity,"TF [8]; probucol 20, vitamin E 50, BHT 50, U74389G 20 μmol/L",inhibited the Cu^+2 induced procoagulant activity
same,insulitis and diabetes,NOD mice,decreased insulitis and delayed diabetes
